According to patent US7193033B2, “Peptide having appetite stimulating activity” (Takeda Pharmaceutical Company Limited, priority 2001, dated 2007):
pEC50: −log10 of the molar value. Ends that are not written are not given here.

Columns and labels:
GPR8 [1] = target: T1, GPR8 (Homo sapiens, UniProt P48146); experiment: GTPγ S binding promoting activity on GPR8-expressed CHO cell membrane fraction; format: biochemical
T1 construct: expressed in transfected cells
Protocol: The [^35S]-guanosine 5′-(γ-thio)triphosphate binding promoting activity on a GPR8-expressed CHO cell membrane fraction was assayed by the following procedures. First, preparation of the membrane fraction is described. To 1×10^8 of CHO/GPR8 cells was added 10 ml of a homogenate buffer (10 mM NaHCO3, 5 mM EDTA, 0.5 mM PMSF, 1 μg/ml pepstatin, 4 μg/ml E64, 20 μg/ml leupeptin). The mixture was homogenized by using Polytron (12,000 rpm, 1 min.). The cell homogenate was subjected to centrifugation (1,000 g, 15 mins.) to obtain the supernatant. Next, the supernatant was subjected to ultracentrifugation (Beckman type 30 rotor, 30,000 rpm, 1 hour). The resulting precipitate was used as GPR8-expressed CHO cell membrane fraction.
The GTPγ S binding activity was assayed as follows. The GPR8-expressed CHO cell membrane fraction was diluted with a membrane dilution buffer (50 mM Tris-hydrochloride buffer (pH 7.4), 5 mM MgCl2, 150 mM NaCl, 1 μM GDP) to prepare a cell membrane fraction solution for assay having a protein level of […]. To 200 μl of the cell membrane fraction solution for assay were added 2 μl of 51.5 nM [^35S]-guanosine 5′-(γ-thio)triphosphate (NEN Co.) and a sample fluid. […] After washing twice with 1.5 ml of a wash buffer (50 mM Tris-hydrochloride buffer (pH 7.4), 5 mM MgCl2, 1 mM EDTA, 0.1% BSA), radioactivity of the filter was measured with a liquid scintillation counter. […]

GPR8 [2] = target: T1, GPR8; experiment: Receptor binding test using [125I-Tyr10]-hGPR8L (1–23) and GPR8-expressed CHO cell membrane fraction; conditions: inhibition of [125I-Tyr10]-hGPR8L (1–23) binding; membrane fraction 5 μg/ml
Protocol: Receptor binding test was carried out using [^125I]-labeled hGPR8L (1–23) prepared as described in EXAMPLE 42 and the cell membrane fraction prepared from GPR8-expressed CHO cells prepared in a similar manner to the procedures described in EXAMPLE 6.
The cell membrane fraction prepared from human GPR8-expressed CHO cells was diluted with an assay buffer (25 mM Tris-HCl, 5 mM EDTA (ethylenediaminetetraacetic acid), 0.05% CHAPS (3-[(3-cholamidopropyl)dimethlammonio]-1-propanesulfonate), 0.1% BSA (bovine serum albumin), 0.25 mM PMSF (phenylmethylsulfonyl fluoride), 1 μg/ml pepstatin, 20 μg/ml leupeptin, pH 7.4) in various concentrations. Subsequently, 200 μl each of the dilution was dispensed in a polypropylene tst tube (Falcon 2053). […] After filtration, the residual radioactivity remained on the filter paper was measured with a γ-counter, and the specific binding (SB) was estimated by subtracting the non-specific binding from the total binding. […]
The receptor binding activity of the human and porcine homologue derivatives of the GPR8 ligand peptide, which synthesis was described in the specification, was determined s described in EXAMPLE 43, using the GPR8-expressed cell membrane fraction and [^125I-Tyr^10]-hGPR8L (1–23). […]

T1 sequence (P48146 whole entry): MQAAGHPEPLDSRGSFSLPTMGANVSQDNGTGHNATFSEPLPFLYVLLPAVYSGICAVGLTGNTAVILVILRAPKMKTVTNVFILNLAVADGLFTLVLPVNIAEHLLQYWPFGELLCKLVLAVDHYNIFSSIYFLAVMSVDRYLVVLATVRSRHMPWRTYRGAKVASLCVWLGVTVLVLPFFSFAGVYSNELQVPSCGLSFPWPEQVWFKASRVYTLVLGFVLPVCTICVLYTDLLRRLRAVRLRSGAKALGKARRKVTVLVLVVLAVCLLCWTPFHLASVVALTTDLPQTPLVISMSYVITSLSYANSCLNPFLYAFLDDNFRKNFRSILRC

| Compound | pEC50 (GPR8 [1]) | IC50 (GPR8 [2]) |
| --- | --- | --- |
| H-WYKHVASPRYHTVGRAAG [hGPR8L(1–18), Trp-Tyr-Lys-His-Val-Ala-Ser-Pro-Arg-Tyr-His-Thr-Val-Gly-Arg-Ala-Ala-Gly] | < 5.00 |  |
| H-WYKHVASPRYHTVGRAAGLL [hGPR8L(1–20)] |  | 0.2 nM |
| CSCC[C@H](NC(=O)[C@H](CC(C)C)NC(=O)[C@H](CC(C)C)NC(=O)CNC(=O)[C@H](C)NC(=O)[C@H](C)NC(=O)[C@H](CCCNC(=N)N)NC(=O)CNC(=O)[C@@H](NC(=O)[C@@H](NC(=O)[C@H](Cc1c[nH]cn1)NC(=O)[C@H](Cc1ccc(O)cc1)NC(=O)[C@H](CCCNC(=N)N)NC(=O)[C@@H]1CCCN1C(=O)[C@H](CO)NC(=O)[C@H](C)NC(=O)[C@@H](NC(=O)[C@H](Cc1c[nH]cn1)NC(=O)[C@H](CCCCN)NC(=O)[C@H](Cc1ccc(O)cc1)NC(=O)[C@H](Cc1c[nH]c2ccccc12)NC(=O)OCC1c2ccccc2-c2ccccc21)C(C)C)[C@@H](C)O)C(C)C)C(=O)NCC(=O)N[C@@H](CC(C)C)C(=O)O [Fmoc-hGPR8L(1–23)] |  | 0.2 nM |
